According to patent US20080009418A1, “Selective Inhibitors” (Alchemia LTD., priority 2004, published 2008):

Assays:
Human μ-opioid (MOP) = molecular target: T1, Human μ-opioid (MOP) (Homo sapiens, UniProt P35372); experiment: Radioligand binding, human μ-opioid (MOP) membranes, FlashPlate, [3H]-Naloxone; settings: compound at 10 μM, [3H]-Naloxone
T1 construct: purchased Perkin Elmer Biosignal
Procedure, shortened: (§1)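 Cloned human receptor membranes were coated onto FlashPlate wells and incubated with radioligand and compound (added from a 0.5 mM DMSO daughter plate) for 1 hour at room temperature in the dark. Scintillation counting gave percent inhibition, with DMSO defining total and reference ligand defining non-specific binding.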

Human opioid (ORL1) = molecular target: T2, Human opioid (ORL1) (Homo sapiens, UniProt P41146); experiment: Radioligand binding, human opioid ORL1 membranes, FlashPlate, [125I]-Nociceptin; settings: compound at 10 μM, [125I]-Nociceptin
T2 construct: purchased Perkin Elmer Biosignal
Procedure, shortened: as §1

Human Melanocortin (MC4) = molecular target: T3, Human Melanocortin (MC4) (Homo sapiens, UniProt P32245); experiment: Radioligand binding, human melanocortin MC4 membranes, FlashPlate, [125I]-NDP-αMSH; settings: compound at 10 μM, [125I]-NDP-αMSH
T3 construct: purchased Perkin Elmer Biosignal
Procedure, shortened: as §1

Human κ-Opioid (KOP) = molecular target: T4, Human κ-Opioid (KOP) (Homo sapiens, UniProt P41145); experiment: Radioligand binding, human κ-opioid (KOP) membranes, filtration, [3H]-Diprenorphine; settings: compound at 10 μM, [3H]-Diprenorphine
T4 construct: purchased Perkin Elmer Biosignal
Procedure, shortened: (§2)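 Filtration binding on cloned human receptor membranes (1 Unit/well), [125I]-Substance P for NK1 and [3H]-Diprenorphine for KOP, 1 h at room temperature. Filters PEI-presoaked, washed with cold 50 mM Tris-HCl pH 7.4, counted by scintillation; percent inhibition calculated, reference ligand defining non-specific binding.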

Human Melanocortin (MC3) = molecular target: T5, Human Melanocortin (MC3) (Homo sapiens, UniProt P41968); experiment: Radioligand binding, human melanocortin MC3 membranes, FlashPlate, [125I]-NDP-αMSH; settings: compound at 10 μM, [125I]-NDP-αMSH
T5 construct: purchased Perkin Elmer Biosignal
Procedure, shortened: as §1

[1] = molecular target: T6, Human melanin-concentrating hormone (MCH1) (Homo sapiens, UniProt Q99705); experiment: Radioligand binding, human melanin-concentrating hormone MCH1 membranes, FlashPlate, [125I]-S36057; settings: compound at 10 μM
T6 construct: purchased Perkin Elmer Biosignal
Procedure, shortened: as §1

[2] = molecular target: T7, Human neuropeptide Y (NPY-Y1) (Homo sapiens, UniProt P25929); experiment: Radioligand binding, human neuropeptide Y NPY-Y1 membranes, FlashPlate, [125I]-PYY; settings: compound at 10 μM, [125I]-PYY
T7 construct: purchased Perkin Elmer Biosignal
T7 sequence (P25929 1-384): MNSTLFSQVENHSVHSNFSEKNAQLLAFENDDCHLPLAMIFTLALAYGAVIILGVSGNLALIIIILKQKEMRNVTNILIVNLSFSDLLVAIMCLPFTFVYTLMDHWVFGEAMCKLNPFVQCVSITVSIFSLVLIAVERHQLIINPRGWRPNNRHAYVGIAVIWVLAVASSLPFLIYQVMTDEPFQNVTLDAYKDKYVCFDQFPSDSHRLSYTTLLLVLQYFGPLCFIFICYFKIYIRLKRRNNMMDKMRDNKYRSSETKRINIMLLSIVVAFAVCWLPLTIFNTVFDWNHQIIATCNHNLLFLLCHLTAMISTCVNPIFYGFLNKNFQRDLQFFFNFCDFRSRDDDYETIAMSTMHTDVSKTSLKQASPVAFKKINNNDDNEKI
Procedure, shortened: as §1

Human δ-opioid (DOP) = molecular target: T8, Human δ-opioid (DOP) (Homo sapiens, UniProt P41143); experiment: Radioligand binding, human δ-opioid (DOP) membranes, FlashPlate, [3H]-Bremazocine; settings: compound at 10 μM, [3H]-Bremazocine
T8 construct: purchased Perkin Elmer Biosignal
Procedure, shortened: as §1

Mouse urotensin (mUR2) = molecular target: T9, Mouse urotensin (mUR2) (Mus musculus, UniProt Q8VIH9); experiment: Radioligand binding, mouse urotensin mUR2 membranes, FlashPlate, [125I]-Urotensin II; settings: compound at 10 μM, [125I]-Urotensin II
T9 construct: purchased Perkin Elmer Biosignal
T9 sequence (Q8VIH9 1-385): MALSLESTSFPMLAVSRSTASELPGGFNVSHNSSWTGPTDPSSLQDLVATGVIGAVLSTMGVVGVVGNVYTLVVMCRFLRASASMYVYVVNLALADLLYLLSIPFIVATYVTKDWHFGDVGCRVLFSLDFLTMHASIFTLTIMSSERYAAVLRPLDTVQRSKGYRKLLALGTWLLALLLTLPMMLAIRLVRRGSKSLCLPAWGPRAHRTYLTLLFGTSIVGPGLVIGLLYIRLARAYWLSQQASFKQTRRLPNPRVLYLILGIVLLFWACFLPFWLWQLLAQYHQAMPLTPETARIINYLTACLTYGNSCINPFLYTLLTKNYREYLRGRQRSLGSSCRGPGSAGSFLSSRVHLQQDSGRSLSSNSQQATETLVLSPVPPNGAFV
Procedure, shortened: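 Cloned mouse urotensin (mUR2) receptor membranes from Perkin Elmer Biosignal were immobilized in FlashPlate microplates using a proprietary coating. Each well got 19.5 μl buffer, then 0.5 μl of DMSO, reference ligand, or compound. Adding 5 μl of [125I]-Urotensin II, diluted to 5× final concentration in binding buffer, started binding. Plates were sealed with TopSeal-A and incubated 1 hour at room temperature in the dark. Wells were counted for 30 seconds each on a TopCount after a 60-second delay, and percentage inhibition was calculated.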

Human melanocortin (MC5) = molecular target: T10, Human melanocortin (MC5) (Homo sapiens, UniProt P33032); experiment: Radioligand binding, human melanocortin MC5 membranes, FlashPlate, [125I]-NDP-αMSH; settings: compound at 10 μM, [125I]-NDP-αMSH
T10 construct: purchased Perkin Elmer Biosignal
Procedure, shortened: as §1

Human neurokinin (NK1) = molecular target: T11, Human neurokinin (NK1) (Homo sapiens, UniProt P25103); experiment: Radioligand binding, human neurokinin NK1 membranes, filtration, [125I]-Substance P; settings: compound at 10 μM, [125I]-Substance P
T11 construct: purchased Perkin Elmer Biosignal
Procedure, shortened: as §2

T8 sequence (P41143 whole entry): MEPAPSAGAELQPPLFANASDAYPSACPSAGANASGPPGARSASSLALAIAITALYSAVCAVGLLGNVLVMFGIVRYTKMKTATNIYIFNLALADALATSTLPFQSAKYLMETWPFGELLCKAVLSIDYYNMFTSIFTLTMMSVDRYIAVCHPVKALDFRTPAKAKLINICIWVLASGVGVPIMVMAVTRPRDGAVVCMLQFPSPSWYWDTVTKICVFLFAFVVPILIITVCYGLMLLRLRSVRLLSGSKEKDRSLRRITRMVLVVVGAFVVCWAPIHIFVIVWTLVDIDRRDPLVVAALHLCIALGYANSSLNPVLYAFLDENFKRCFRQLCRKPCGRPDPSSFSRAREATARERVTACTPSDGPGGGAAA
T1 sequence (P35372 whole entry): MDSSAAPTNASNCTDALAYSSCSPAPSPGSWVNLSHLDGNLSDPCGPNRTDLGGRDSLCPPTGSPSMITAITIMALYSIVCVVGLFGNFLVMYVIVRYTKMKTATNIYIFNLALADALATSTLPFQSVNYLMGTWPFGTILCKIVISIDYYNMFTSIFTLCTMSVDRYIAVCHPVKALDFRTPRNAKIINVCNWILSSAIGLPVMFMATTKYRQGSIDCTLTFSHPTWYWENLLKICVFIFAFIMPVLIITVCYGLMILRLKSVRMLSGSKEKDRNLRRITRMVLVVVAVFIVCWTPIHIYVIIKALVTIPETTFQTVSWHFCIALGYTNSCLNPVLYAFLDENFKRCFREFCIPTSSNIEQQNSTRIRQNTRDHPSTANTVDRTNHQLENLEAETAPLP
T6 sequence (Q99705 whole entry): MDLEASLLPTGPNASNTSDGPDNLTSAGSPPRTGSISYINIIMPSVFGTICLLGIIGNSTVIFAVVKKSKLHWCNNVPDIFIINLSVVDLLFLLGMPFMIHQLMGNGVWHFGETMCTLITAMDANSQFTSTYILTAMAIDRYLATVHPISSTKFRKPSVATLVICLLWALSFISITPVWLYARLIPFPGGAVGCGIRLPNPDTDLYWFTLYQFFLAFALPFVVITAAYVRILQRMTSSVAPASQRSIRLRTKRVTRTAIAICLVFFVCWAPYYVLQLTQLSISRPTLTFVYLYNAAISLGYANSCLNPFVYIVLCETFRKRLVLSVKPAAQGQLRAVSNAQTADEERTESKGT
T10 sequence (P33032 whole entry): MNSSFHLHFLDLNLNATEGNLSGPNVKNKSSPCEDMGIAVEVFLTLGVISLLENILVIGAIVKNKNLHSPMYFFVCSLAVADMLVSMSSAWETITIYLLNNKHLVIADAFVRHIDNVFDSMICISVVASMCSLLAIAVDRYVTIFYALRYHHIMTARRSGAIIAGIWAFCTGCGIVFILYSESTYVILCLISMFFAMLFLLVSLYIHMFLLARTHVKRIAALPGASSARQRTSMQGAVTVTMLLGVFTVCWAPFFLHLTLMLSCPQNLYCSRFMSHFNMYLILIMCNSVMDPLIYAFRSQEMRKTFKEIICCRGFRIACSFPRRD
T4 sequence (P41145 whole entry): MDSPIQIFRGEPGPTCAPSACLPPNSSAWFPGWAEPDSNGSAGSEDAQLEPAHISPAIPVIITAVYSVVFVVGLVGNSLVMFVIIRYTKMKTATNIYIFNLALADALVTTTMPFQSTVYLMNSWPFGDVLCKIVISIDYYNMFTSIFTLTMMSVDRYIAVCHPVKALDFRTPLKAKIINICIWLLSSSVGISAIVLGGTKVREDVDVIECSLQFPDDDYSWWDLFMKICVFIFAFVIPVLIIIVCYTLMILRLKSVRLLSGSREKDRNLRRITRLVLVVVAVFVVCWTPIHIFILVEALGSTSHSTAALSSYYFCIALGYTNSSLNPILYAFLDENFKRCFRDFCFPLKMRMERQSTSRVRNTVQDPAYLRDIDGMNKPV
T3 sequence (P32245 whole entry): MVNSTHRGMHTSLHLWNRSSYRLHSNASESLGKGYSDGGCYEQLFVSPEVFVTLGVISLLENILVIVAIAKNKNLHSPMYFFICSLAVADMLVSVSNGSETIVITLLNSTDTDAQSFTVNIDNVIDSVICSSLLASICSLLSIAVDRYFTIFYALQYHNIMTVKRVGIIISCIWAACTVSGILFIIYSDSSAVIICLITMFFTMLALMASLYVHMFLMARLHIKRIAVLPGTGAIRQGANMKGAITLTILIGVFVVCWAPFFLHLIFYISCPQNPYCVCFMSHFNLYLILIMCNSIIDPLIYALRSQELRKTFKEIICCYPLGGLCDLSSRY
T11 sequence (P25103 whole entry): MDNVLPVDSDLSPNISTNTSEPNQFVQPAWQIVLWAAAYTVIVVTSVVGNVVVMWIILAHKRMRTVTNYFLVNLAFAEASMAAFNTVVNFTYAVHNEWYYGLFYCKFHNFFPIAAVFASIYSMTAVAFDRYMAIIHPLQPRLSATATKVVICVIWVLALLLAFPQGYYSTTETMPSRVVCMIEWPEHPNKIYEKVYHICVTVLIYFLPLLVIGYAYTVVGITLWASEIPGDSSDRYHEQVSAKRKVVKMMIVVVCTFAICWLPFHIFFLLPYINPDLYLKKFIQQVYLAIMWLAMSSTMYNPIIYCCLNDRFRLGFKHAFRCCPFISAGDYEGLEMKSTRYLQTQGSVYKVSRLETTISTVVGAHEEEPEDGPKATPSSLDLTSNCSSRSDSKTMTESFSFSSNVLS
T5 sequence (P41968 whole entry): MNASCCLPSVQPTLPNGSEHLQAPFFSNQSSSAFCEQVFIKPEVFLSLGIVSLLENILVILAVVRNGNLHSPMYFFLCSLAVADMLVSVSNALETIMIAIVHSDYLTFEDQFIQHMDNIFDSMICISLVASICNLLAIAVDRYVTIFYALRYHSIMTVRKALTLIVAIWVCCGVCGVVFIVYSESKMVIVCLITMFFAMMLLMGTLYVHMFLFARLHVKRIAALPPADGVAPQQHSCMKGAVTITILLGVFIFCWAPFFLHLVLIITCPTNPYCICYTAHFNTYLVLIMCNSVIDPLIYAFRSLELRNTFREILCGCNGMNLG
T2 sequence (P41146 whole entry): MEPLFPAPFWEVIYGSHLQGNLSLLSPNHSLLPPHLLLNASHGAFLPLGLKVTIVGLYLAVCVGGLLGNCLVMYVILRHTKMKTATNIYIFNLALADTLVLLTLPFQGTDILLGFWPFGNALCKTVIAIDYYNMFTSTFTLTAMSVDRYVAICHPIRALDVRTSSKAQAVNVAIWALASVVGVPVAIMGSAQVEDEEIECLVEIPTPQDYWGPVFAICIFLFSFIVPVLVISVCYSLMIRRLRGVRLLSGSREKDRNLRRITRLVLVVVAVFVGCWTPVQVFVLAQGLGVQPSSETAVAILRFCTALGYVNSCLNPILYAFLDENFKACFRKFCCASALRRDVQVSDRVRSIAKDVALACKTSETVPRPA

## CO[C@H]1[C@H](O)[C@@H](COCc2ccc(-c3ccccc3)cc2)OC(OCCc2ccccc2)[C@@H]1NC(=O)CCCNC(=N)N (some centres unmarked) [compound 112]
Human μ-opioid (MOP)
  A7 radioligand binding, percentage inhibition: − (“−” indicates less than 50% inhibition at 10 μM)
Human opioid (ORL1)
  A10 radioligand binding, percentage inhibition: − (“−” indicates less than 50% inhibition at 10 μM)
Human Melanocortin (MC4)
  A4 radioligand binding, percentage inhibition: + (“+” indicates greater than 50% inhibition at 10 μM)
Human κ-Opioid (KOP)
  A2 radioligand binding, percentage inhibition: − (“−” indicates less than 50% inhibition at 10 μM)
Human Melanocortin (MC3)
  A3 radioligand binding, percentage inhibition: + (“+” indicates greater than 50% inhibition at 10 μM)
[1]; [125I]-S36057
  A6 radioligand binding, percentage inhibition: − (“−” indicates less than 50% inhibition at 10 μM)
[2]
  A9 radioligand binding, percentage inhibition: − (“−” indicates less than 50% inhibition at 10 μM)
Human δ-opioid (DOP)
  A1 radioligand binding, percentage inhibition: − (“−” indicates less than 50% inhibition at 10 μM)
Mouse urotensin (mUR2)
  A11 radioligand binding, percentage inhibition: − (“−” indicates less than 50% inhibition at 10 μM)
Human melanocortin (MC5)
  A5 radioligand binding, percentage inhibition: + (“+” indicates greater than 50% inhibition at 10 μM)
Human neurokinin (NK1)
  A8 radioligand binding, percentage inhibition: + (“+” indicates greater than 50% inhibition at 10 μM)

## NCCC(=O)NC1C(OCc2ccc(Cl)cc2)OC(COCc2ccccc2)C(O)C1OCc1ccc2ccccc2c1 (single isomer, unassigned) [compound 479]
Human μ-opioid (MOP); 10 µM
  A7: inhibition of radioligand binding, human μ-opioid (MOP): − (“−” indicates less than 50% inhibition at 10 μM)
Human opioid (ORL1)
  A10: inhibition of radioligand binding, human opioid (ORL1): − (“−” indicates less than 50% inhibition at 10 μM)
Human Melanocortin (MC4); 10 µM
  A4: inhibition of radioligand binding, human melanocortin (MC4): − (“−” indicates less than 50% inhibition at 10 μM)
Human κ-Opioid (KOP)
  A2: inhibition of radioligand binding, human κ-opioid (KOP): − (“−” indicates less than 50% inhibition at 10 μM)
Human Melanocortin (MC3)
  A3: inhibition of radioligand binding, human melanocortin (MC3): − (“−” indicates less than 50% inhibition at 10 μM)
[1]; [125I]-S36057, 10 µM
  A6: inhibition of radioligand binding, human melanin-concentrating hormone (MCH1): − (“−” indicates less than 50% inhibition at 10 μM)
[2]
  A9: inhibition of radioligand binding, human neuropeptide Y (NPY-Y1): − (“−” indicates less than 50% inhibition at 10 μM)
Human δ-opioid (DOP)
  A1: inhibition of radioligand binding, human δ-opioid (DOP): − (“−” indicates less than 50% inhibition at 10 μM)
Mouse urotensin (mUR2)
  A11: inhibition of radioligand binding, mouse urotensin (mUR2): − (“−” indicates less than 50% inhibition at 10 μM)
Human melanocortin (MC5); 10 µM
  A5: inhibition of radioligand binding, human melanocortin (MC5): − (“−” indicates less than 50% inhibition at 10 μM)
Human neurokinin (NK1)
  A8: inhibition of radioligand binding, human neurokinin (NK1): + (“+” indicates greater than 50% inhibition at 10 μM)

## N=C(N)NCCC(=O)N[C@H]1C(OCc2ccc(Cl)cc2)O[C@H](COCc2ccc(Cl)cc2)[C@@H](O)[C@@H]1OCc1ccc(-c2ccccc2)cc1 (some centres unmarked) [compound 537]
Human μ-opioid (MOP)
  A7: inhibition of radioligand binding, human μ-opioid (MOP): − (“−” indicates less than 50% inhibition at 10 μM)
Human opioid (ORL1)
  A10: inhibition of radioligand binding, human opioid (ORL1): + (“+” indicates greater than 50% inhibition at 10 μM)
Human Melanocortin (MC4)
  A4: inhibition of radioligand binding, human melanocortin (MC4): + (“+” indicates greater than 50% inhibition at 10 μM)
Human κ-Opioid (KOP); 10 µM
  A2: inhibition of radioligand binding, human κ-opioid (KOP): − (“−” indicates less than 50% inhibition at 10 μM)
Human Melanocortin (MC3)
  A3: inhibition of radioligand binding, human melanocortin (MC3): + (“+” indicates greater than 50% inhibition at 10 μM)
[1]; [125I]-S36057
  A6: inhibition of radioligand binding, human melanin-concentrating hormone (MCH1): + (“+” indicates greater than 50% inhibition at 10 μM)
[2]; 10 µM
  A9: inhibition of radioligand binding, human neuropeptide Y (NPY-Y1): − (“−” indicates less than 50% inhibition at 10 μM)
Human δ-opioid (DOP)
  A1: inhibition of radioligand binding, human δ-opioid (DOP): − (“−” indicates less than 50% inhibition at 10 μM)
Mouse urotensin (mUR2); 10 µM
  A11: inhibition of radioligand binding, mouse urotensin (mUR2): − (“−” indicates less than 50% inhibition at 10 μM)
Human melanocortin (MC5)
  A5: inhibition of radioligand binding, human melanocortin (MC5): + (“+” indicates greater than 50% inhibition at 10 μM)
Human neurokinin (NK1)
  A8: inhibition of radioligand binding, human neurokinin (NK1): + (“+” indicates greater than 50% inhibition at 10 μM)

## COCC1OC(OCCc2ccccc2)C(NC(=O)CNC(=N)N)C(OCc2ccc(Cl)cc2)C1O (centres unmarked) [compound 220]
Human μ-opioid (MOP); FlashPlate
  A7: inhibition of radioligand binding: − (“−” indicates less than 50% inhibition at 10 μM)
Human opioid (ORL1); FlashPlate
  A10: inhibition of radioligand binding: − (“−” indicates less than 50% inhibition at 10 μM)
Human Melanocortin (MC4); FlashPlate
  A4: inhibition of radioligand binding: + (“+” indicates greater than 50% inhibition at 10 μM)
Human κ-Opioid (KOP); filtration
  A2: inhibition of radioligand binding: − (“−” indicates less than 50% inhibition at 10 μM)
Human Melanocortin (MC3); FlashPlate
  A3: inhibition of radioligand binding: + (“+” indicates greater than 50% inhibition at 10 μM)
[1]; [125I]-S36057, FlashPlate
  A6: inhibition of radioligand binding: − (“−” indicates less than 50% inhibition at 10 μM)
[2]; FlashPlate
  A9: inhibition of radioligand binding: − (“−” indicates less than 50% inhibition at 10 μM)
Human δ-opioid (DOP); FlashPlate
  A1: inhibition of radioligand binding: − (“−” indicates less than 50% inhibition at 10 μM)
Mouse urotensin (mUR2); FlashPlate
  A11: inhibition of radioligand binding: − (“−” indicates less than 50% inhibition at 10 μM)
Human melanocortin (MC5); FlashPlate
  A5: inhibition of radioligand binding: + (“+” indicates greater than 50% inhibition at 10 μM)
Human neurokinin (NK1); filtration
  A8: inhibition of radioligand binding: + (“+” indicates greater than 50% inhibition at 10 μM)
